A word on the inhibition: it is the change of the read-out against control, counted positive when it falls. For orientation: Ki means a dissociation constant, usually derived from enzyme kinetics or from competition with a known ligand.

Consider two compounds from publication PMC6152084, “Synthesis of New Hydrazone Derivatives for MAO Enzymes Inhibitory Activity” (Molecules : A Journal of Synthetic Chemistry and Natural …, 2017).

Entries after “also recorded” stand apart in the source; their conditions may differ.

In data set [1] the target is T1, hMAO-A (Homo sapiens, UniProt P21397).
T1 construct: purchased Sigma-Aldrich (Steinheim, Germany)
T1 sequence (P21397 1-527): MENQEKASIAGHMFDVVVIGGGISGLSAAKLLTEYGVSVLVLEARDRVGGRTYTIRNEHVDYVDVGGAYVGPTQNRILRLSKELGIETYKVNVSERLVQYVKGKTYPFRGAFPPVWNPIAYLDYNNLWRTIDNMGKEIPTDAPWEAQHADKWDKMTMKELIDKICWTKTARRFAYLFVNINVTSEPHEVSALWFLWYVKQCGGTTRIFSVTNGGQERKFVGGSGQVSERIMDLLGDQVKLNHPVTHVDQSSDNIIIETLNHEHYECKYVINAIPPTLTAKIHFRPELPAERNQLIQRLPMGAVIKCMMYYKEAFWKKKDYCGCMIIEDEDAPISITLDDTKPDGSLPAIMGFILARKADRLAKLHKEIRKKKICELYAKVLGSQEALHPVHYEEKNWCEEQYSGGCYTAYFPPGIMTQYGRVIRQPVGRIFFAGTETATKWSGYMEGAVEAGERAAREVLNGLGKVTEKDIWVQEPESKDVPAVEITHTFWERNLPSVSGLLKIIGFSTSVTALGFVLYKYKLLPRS
Nature of the data set: Enzyme kinetics (Lineweaver-Burk plots, tyramine substrate). The data set is classed as biochemical. Conditions: for type of inhibition of hMAO-A: Lineweaver-Burk plot. How it is done:
The mechanism of hMAO-A inhibition was investigated by enzyme kinetics, following a similar procedure to the MAO inhibition assay. The linear Lineweaver-Burk graphics were used to estimate the type of inhibition. […] In each case, the initial velocity measurements were gained at different substrate (tyramine) concentrations ranging from 20 μM to 0.625 μM. The Ki (intercept on the x-axis) values of compounds 2a and 2b were determined from the secondary plot of the Km/Vmax (slope) versus varying concentrations.
Based on the type of interaction with the enzyme, inhibitor binding can be classified as either reversible or irreversible. The type of inhibition can be determined by the Lineweaver-Burk plot as mixed-type, uncompetitive, competitive, or noncompetitive, which are the indicators of a reversible inhibitor [23]. It is known that in the uncompetitive type inhibition a graphic, including the parallel lines without any cross, is observed. If the lines cross neither the x- nor the y-axis at the same point the inhibition type is called mixed-type. Noncompetitive inhibition is seen if the plots intersect on the x-axis. There are different slopes and intercepts on the y-axis. On the other hand, competitive inhibition gives the opposite situation. This type of inhibition has plots with the same intercept on the y-axis but there are diverse slopes and intercepts on the x-axis, which are observed in Figure 2 and Figure 3.
The same materials were used as in the MAO inhibition assay. […] The solutions of inhibitor (20 μL/well) and enzyme were added to the flat black bottom 96-well micro test plate, and incubated at 37 °C for 30 min. After incubation period, the working solution, including various concentrations (20, 10, 5, 2.5, 1.25, and 0.625 μM) of tyramine (100 μL/well) was added. The increase of the fluorescence (Ex/Em = 535/587 nm) was recorded for 30 min. A parallel experiment was carried out without inhibitor. All processes were assayed in quadruplicate. The results were analyzed as Lineweaver-Burk plots using Microsoft Office Excel 2013. The Km/Vmax (slope) values of the Lineweaver-Burk plots were replotted versus the inhibitor concentration, and the Ki values were determined from the x-axis intercept as −Ki.

The target of data set [2] is T2, hMAO-B (Homo sapiens, UniProt P27338).
T2 construct: purchased Sigma-Aldrich (Steinheim, Germany)
T2 sequence (P27338 1-520): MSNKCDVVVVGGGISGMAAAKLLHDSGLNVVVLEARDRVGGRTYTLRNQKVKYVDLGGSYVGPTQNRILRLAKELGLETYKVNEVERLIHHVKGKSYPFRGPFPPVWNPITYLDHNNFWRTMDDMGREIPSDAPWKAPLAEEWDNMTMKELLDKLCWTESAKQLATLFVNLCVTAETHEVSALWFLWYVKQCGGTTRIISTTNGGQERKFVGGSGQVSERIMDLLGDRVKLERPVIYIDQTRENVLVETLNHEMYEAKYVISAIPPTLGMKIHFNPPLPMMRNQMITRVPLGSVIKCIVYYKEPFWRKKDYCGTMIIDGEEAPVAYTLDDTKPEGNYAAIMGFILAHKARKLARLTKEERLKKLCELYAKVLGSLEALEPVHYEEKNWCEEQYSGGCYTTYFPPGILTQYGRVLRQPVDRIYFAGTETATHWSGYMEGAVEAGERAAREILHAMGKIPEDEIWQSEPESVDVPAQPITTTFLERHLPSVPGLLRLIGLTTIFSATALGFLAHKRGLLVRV
As to the kind of experiment: MAO-B inhibition assay (in vitro fluorometric Amplex Red method). It is filed as biochemical. The settings on record: for inhibition at 1000 µM: 10^−3 M; for inhibition at 100 µM: 10^−4 M.

Data set [3] has as its target T1, hMAO-A. As to the kind of experiment: MAO-A inhibition assay (in vitro fluorometric Amplex Red method). The data set is classed as biochemical. Conditions: for inhibition at 1000 µM: 10^−3 M; for inhibition at 100 µM: 10^−4 M; for inhibition at 10 µM: 10^−5 M; for inhibition at 1 µM: 10^−6 M; for inhibition at 0.1 µM: 10^−7 M; for inhibition at 0.01 µM: 10^−8 M; for inhibition at 0.001 µM: 10^−9 M; for inhibition against hMAO-A in the initial assay: first step, 10^−3 and 10^−4 M; for selectivity towards hMAO-A: versus hMAO-B.

In data set [4] the test system is NIH/3T3 mouse embryonic fibroblast cell line. Nature of the data set: Cytotoxicity test (MTT assay). It is filed as cell-based. The settings on record: for IC50: Mus musculus, NIH3T3, MTT, read-out: IC50 against NIH/3T3 cells; for cytotoxicity (in words): at effective concentration against hMAO-A. How it is done: In cytotoxicity test by using NIH/3T3 mouse embryonic fibroblast cell line (ATCC® CRL-1658™, London, UK), firstly NIH/3T3 cells were incubated in the Dulbecco’s Modified Eagle’s Medium (DMEM, Sigma Aldrich, St. Louis, MO, USA). NIH/3T3 cells were plated on 96-well culture plates as 10,000 cells per well and were then treated with the compounds at concentrations ranging from 1000 µM to 0.316 µM (1000, 316, 100, 31.6, 10, 3.16, 1, 0.316 µM). MTT assay was performed as previously described. Dose-response curves were plotted against compound concentrations applied to determine IC50 values.
(Formazan colour is commonly taken as a measure of viable cells.)

As to `CN1CCN(c2ccc(C=NNc3ccccc3)cc2)CC1` [Compound 2b, 1-(4-(4-Methylpiperazine-1-yl)benzylidene)-2-phenylhydrazine], in data set [1], the “Vmax value of the competitive inhibition” value came to 79.360 ± 5.704 nmol/min/mg protein; the “type of inhibition of hMAO-A” value was “reversible and competitive”. In data set [2], this compound gave an inhibition at 1000 µM of 63.7 ± 1.03% and an inhibition at 100 µM of 43 ± 1.2%. Also, in data set [3], the IC50 was 28 ± 1 nM, at 1000 µM the inhibition was 93.53 ± 0.412%, 100 µM produced 88.86 ± 0.214% inhibition and at 10 µM the inhibition was 80.42 ± 0.47%. In data set [3], this compound had an inhibition at 1 µM of 66.22 ± 0.54%, an inhibition at 0.1 µM of 48.2 ± 0.631%, an inhibition at 0.01 µM of 45.3 ± 0.48% and an inhibition at 0.001 µM of 38.15 ± 0.367%. Also, in data set [3], the “inhibition against hMAO-A in the initial assay” value is “more than 50%” and the “selectivity towards hMAO-A” value is on record as “selective inhibition potency towards hMAO-A”. Also, the “fold more active than moclobemide against hMAO-A” value in data set [3] (ratio of IC50 values) amounted to 216 fold. Also, in data set [4], the IC50 amounted to 20000 ± 1320 nM and the “cytotoxicity (in words)” value was “non-cytotoxic; also recorded: not cytotoxic”.

Take `CC1CCCCN1c1ccc(/C=N/Nc2ccccc2)cc1` (stereo not shown) [Compound 2a, 1-(4-(2-Methypiperidin-1-yl)benzylidene)-2-phenylhydrazine]: in data set [1], the “Vmax value of the competitive inhibition” value turned out to be 85.517 ± 2.332 nmol/min/mg protein; the “type of inhibition of hMAO-A” value was “reversible and competitive”. Besides, in data set [1] (secondary plot of Km/Vmax (slope) versus inhibitor concentration, read-out: Ki for the inhibition of hMAO-A), the inhibition constant (Ki) was determined as 188 nM. In data set [2], this compound had an inhibition at 1000 µM of 35 ± 0.766% and an inhibition at 100 µM of 22.1 ± 0.443%. In data set [3], the IC50 amounted to 342 ± 15 nM, 1000 µM produced 88.2 ± 0.821% inhibition, testing at 100 µM gave an inhibition of 84.29 ± 0.641% and the inhibition at 10 µM worked out at 75.1 ± 0.693%. In data set [3], this compound gave an inhibition at 1 µM of 50.8 ± 0.582%, an inhibition at 0.1 µM of 34.7 ± 0.378%, an inhibition at 0.01 µM of 30.5 ± 0.542% and an inhibition at 0.001 µM of 25.5 ± 0.517%. In addition, in data set [3], the “inhibition against hMAO-A in the initial assay” value was “more than 50%” and the “selectivity towards hMAO-A” value is “selective inhibition potency towards hMAO-A”. Besides, in data set [4], the IC50 was determined as 930000 ± 15400 nM and the “cytotoxicity (in words)” value is “non-cytotoxic; also recorded: not cytotoxic”.
